Patent US20230321067A1, “DOSING REGIMEN COMPRISING 3-(1-OXOISOINDOLIN-2-YL)PIPERIDINE-2,6-DIONE DERIVATIVES” (Novartis AG, priority 2020, published 2023)

Legend:
[1] = molecular target: CYP2C9 (Homo sapiens, UniProt P11712); experiment: CYP inhibition: CYP2C9; assay type: in vitro ADME; conditions: I-57 concentrations of up to 100 μM
[2] = tested on: peripheral T cells; experiment: Proliferation of peripheral T cells (Ki67 staining) in immunized cynomolgus monkeys (FIG. 9B); assay type: in vivo, cynomolgus monkey; conditions: 3 mg/kg daily, recall response phase, compared to immunization alone
Procedure: FIG. 9B. is a graph showing proliferation of peripheral T cells (Mean+/−SEM, % of predose) upon treatment with 0.1 and 3 mg/kg of Compound I-57 in cynomolgus monkeys.

[3] = tested on: plasma protein; experiment: Plasma protein binding in vitro, monkey; assay type: in vitro ADME
Description: (§1) The binding to plasma protein of I-57 in vitro was moderate in all species, with an observed difference between rodents (73% in mouse, 76% in rat) and non-rodents (52% in dog and monkey, 54% in human). Blood-to-plasma ratios were in the range of 0.7-1.8 (human 1.1-1.3). […] Based on results with non-radiolabeled I-57 in the dog, a significant amount of unchanged I-57 was renally eliminated (˜20% of dose).

[4] = tested on: IKZF2; experiment: Single oral dose PD in cynomolgus monkey: IKZF2 expression in T cells from PBMCs by flow cytometry; assay type: in vivo
Procedure: The PK/PD relationship of I-57 was examined in cynomolgus monkeys after a single oral dose of 0.01, 0.1 or 1 mg/kg. I-57 plasma concentration and IKZF2 expression (as determined by flow cytometry) in FOXP3+ T cells from PBMCs were determined (FIG. 4 and FIG. 5).
Decreased (percentage change) IKZF2 positive […] cells, as determined by flow cytometry, were detectable at 4h post dose in the 1 mg/kg and 0.1 mg/kg groups, reaching maximum at 12-24 hrs post-dose and maintaining this maximum for 12-24 hrs.

[5] = tested on: plasma protein; experiment: Plasma protein binding in vitro, dog; assay type: in vitro ADME
Description: as §1

[6] = molecular target: IKZF2 (Homo sapiens, UniProt Q96SW2+Q9UKS7); experiment: Degradation of prolabel-tagged IKZF2 in HEK293T cells (FIG. 1); assay type: cell-based; parameters: prolabel (ProLabel enzyme-fragment tag); expressed in transfected cells; host or cells: HEK293T; conditions: HEK293T cells overexpressing prolabel-tagged target proteins, various concentrations
Sequence of IKZF2 (Homo sapiens, UniProt Q96SW2+Q9UKS7) (Q9UKS7 whole entry, the tested form may be a part): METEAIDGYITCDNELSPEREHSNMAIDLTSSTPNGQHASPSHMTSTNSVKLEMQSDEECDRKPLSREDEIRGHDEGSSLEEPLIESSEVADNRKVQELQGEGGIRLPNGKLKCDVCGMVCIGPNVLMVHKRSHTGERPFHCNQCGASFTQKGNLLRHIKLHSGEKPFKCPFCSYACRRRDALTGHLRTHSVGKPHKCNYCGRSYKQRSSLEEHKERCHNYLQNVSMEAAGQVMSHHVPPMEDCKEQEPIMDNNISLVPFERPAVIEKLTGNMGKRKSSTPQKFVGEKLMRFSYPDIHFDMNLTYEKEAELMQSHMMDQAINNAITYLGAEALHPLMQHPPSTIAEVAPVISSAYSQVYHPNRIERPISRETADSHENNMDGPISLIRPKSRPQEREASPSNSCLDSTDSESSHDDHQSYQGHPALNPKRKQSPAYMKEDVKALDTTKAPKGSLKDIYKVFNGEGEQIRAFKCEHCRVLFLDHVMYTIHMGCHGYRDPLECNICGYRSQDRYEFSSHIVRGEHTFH
Sequence of IKZF2 (Homo sapiens, UniProt Q96SW2+Q9UKS7) (Q96SW2 whole entry, the tested form may be a part): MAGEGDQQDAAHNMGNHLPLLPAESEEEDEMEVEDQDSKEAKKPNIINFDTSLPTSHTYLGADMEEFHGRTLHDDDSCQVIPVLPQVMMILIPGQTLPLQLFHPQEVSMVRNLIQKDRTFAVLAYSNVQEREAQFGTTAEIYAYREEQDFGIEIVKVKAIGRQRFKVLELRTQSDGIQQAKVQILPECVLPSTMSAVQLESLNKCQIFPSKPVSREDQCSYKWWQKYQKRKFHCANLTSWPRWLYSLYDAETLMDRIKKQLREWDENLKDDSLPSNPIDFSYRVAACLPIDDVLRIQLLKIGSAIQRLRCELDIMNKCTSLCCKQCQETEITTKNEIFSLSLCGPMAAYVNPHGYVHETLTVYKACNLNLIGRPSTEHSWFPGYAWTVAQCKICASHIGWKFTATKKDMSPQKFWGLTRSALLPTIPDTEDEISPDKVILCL
Sequence of IKZF2 (Homo sapiens, UniProt Q96SW2+Q9UKS7) (Q16531 whole entry partner, the tested form may be a part): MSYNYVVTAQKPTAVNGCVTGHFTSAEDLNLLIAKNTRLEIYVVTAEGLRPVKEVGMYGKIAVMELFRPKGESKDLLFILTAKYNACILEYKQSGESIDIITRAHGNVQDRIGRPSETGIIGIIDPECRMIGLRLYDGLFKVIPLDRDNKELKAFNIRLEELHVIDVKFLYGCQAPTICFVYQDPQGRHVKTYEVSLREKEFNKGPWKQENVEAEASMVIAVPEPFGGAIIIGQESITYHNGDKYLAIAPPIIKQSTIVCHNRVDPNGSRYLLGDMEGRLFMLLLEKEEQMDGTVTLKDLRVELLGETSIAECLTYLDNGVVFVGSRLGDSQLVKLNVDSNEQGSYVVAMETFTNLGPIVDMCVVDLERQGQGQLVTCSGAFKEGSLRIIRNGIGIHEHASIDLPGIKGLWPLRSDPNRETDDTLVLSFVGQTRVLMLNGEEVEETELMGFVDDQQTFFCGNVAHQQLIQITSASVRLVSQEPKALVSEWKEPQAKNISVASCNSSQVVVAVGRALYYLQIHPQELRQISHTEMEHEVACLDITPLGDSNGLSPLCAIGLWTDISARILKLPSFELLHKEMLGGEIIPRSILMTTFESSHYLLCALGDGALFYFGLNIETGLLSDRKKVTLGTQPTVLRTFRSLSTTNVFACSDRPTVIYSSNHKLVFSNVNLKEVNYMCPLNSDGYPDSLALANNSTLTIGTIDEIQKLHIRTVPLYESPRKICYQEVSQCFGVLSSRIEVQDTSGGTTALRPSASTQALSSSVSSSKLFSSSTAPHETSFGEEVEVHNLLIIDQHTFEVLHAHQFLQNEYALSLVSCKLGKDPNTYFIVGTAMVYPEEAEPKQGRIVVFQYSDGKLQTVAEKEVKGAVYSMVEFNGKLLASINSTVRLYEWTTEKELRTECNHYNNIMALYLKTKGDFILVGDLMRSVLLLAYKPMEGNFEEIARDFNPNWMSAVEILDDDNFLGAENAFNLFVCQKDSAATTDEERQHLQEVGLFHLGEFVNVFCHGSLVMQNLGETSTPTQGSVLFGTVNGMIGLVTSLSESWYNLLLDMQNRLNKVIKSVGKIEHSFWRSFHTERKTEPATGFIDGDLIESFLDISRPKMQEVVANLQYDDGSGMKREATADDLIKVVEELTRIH
Description: FIG. 1. is a graph showing the selectivity of Compound I-57 for the degradation of IKZF2 over the other IKAROS family members, IKZF1, IKZF4, and GSPT1 at various concentrations in HEK293T cells overexpressing prolabel-tagged target proteins.

[7] = tested on: peripheral T cells; experiment: Immunization response (KLH/Squalene) in cynomolgus monkey: anti-KLH IG and Ki67 T cells; assay type: in vivo
Procedure: The PK/PD relationship of I-57 was further examined in cynomolgus monkeys after repeated daily oral doses of 0.1 and 3 mg/kg. In this study, a cohort of animals were initially immunized with an antigen-adjuvant mixture (KLH/Squalene). The experiment was designed to assess the effect of I-57 exposure, and the resulting IKZF2 degradation, on immune response during immunization to test the hypothesis that IKZF2 degradation would result in increased proliferation of stimulated T-cells. In the experiment, daily I-57 oral treatment was initiated 5 days after immunization. An immunization booster dose was administered on day 15. I-57 plasma concentration and IKZF2 expression (as determined by flow cytometry) in FOXP3+ T cells from PBMCs were determined (FIG. 9A and FIG. 9B).
In order to measure the impact of I-57 treatment on the immune response following immunization, serum anti-KLH IG levels were measured longitudinally, and levels of T cell activation were measured in PBMCs by flow cytometry. […] In contrast, the proportion of proliferative peripheral T cells (denoted by Ki67 staining) was increased in the highest dose group (3 mg/kg) in the recall response phase, compared to immunization alone.

[8] = molecular target: T1, CYP2C8 (Homo sapiens, UniProt P10632); experiment: CYP inhibition: CYP2C8; assay type: in vitro ADME; conditions: I-57 concentrations of up to 100 μM
T1 sequence (P10632 whole entry): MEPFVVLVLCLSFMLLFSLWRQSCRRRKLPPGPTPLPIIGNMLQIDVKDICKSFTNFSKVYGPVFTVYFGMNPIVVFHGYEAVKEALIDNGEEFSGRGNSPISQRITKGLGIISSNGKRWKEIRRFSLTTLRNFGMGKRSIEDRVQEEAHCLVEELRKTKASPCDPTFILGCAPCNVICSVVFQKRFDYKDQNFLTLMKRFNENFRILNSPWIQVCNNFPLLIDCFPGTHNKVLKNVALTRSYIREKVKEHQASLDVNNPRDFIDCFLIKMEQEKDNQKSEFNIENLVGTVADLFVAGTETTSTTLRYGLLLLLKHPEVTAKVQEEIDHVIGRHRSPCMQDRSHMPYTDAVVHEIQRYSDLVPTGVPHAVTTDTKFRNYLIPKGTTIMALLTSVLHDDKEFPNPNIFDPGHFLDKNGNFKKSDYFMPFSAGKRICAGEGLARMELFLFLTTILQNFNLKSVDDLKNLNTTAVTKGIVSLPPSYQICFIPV

[9] = In vivo non-clinical PK, mouse
Procedure: The in vivo non-clinical PK profile of I-57 was investigated in mouse, rat, dog and cynomolgus monkey using I-57 free base. […] After p.o. administration, the absorption of I-57 was rapid with peak blood concentration (Tmax) occurring between 1 and 4 hours. […] In high dose PK and toxicology studies with I-57 the exposures in mouse, rat and monkey increased with dose.
as §1

[10] = tested on: CYP3A; experiment: Time-dependent CYP inhibition: CYP3A; assay type: in vitro ADME; conditions: I-57 concentrations of up to 100 μM
[11] = molecular target: T1, CYP2C8; experiment: Time-dependent CYP inhibition: CYP2C8; assay type: in vitro ADME; conditions: I-57 concentrations of up to 100 μM
[12] = tested on: IKZF2; experiment: Degradation of IKZF2 in primary PBMCs, cynomolgus monkey (FIG. 3); assay type: cell-based
Description: FIG. 3. is a bar graph showing the degradation of IKZF2 in primary PBMCs obtained from rabbit, dog, pig, cynomolgus monkey and human, and in primary splenocytes of mouse and rat and treated with Compound I-57.

[13] = molecular target: CYP2B6 (Homo sapiens, UniProt P20813); experiment: Time-dependent CYP inhibition: CYP2B6; assay type: in vitro ADME; conditions: I-57 concentrations of up to 100 μM
Sequence of CYP2B6 (P20813 whole entry): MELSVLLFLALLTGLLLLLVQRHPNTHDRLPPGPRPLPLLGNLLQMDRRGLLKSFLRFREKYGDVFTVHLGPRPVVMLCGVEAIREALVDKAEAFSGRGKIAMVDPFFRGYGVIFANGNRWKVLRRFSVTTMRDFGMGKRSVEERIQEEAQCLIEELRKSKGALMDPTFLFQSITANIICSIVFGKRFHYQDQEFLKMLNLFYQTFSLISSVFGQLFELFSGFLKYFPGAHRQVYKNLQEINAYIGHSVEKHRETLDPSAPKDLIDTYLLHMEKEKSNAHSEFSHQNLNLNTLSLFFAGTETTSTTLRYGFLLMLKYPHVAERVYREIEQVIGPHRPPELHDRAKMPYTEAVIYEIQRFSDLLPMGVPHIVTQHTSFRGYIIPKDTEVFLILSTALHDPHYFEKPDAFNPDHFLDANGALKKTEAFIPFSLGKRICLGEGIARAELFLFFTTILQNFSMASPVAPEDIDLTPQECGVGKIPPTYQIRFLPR

[14] = molecular target: P-gp (Homo sapiens, UniProt P08183); experiment: P-gp substrate assessment; assay type: in vitro ADME
Sequence of P-gp (P08183 whole entry): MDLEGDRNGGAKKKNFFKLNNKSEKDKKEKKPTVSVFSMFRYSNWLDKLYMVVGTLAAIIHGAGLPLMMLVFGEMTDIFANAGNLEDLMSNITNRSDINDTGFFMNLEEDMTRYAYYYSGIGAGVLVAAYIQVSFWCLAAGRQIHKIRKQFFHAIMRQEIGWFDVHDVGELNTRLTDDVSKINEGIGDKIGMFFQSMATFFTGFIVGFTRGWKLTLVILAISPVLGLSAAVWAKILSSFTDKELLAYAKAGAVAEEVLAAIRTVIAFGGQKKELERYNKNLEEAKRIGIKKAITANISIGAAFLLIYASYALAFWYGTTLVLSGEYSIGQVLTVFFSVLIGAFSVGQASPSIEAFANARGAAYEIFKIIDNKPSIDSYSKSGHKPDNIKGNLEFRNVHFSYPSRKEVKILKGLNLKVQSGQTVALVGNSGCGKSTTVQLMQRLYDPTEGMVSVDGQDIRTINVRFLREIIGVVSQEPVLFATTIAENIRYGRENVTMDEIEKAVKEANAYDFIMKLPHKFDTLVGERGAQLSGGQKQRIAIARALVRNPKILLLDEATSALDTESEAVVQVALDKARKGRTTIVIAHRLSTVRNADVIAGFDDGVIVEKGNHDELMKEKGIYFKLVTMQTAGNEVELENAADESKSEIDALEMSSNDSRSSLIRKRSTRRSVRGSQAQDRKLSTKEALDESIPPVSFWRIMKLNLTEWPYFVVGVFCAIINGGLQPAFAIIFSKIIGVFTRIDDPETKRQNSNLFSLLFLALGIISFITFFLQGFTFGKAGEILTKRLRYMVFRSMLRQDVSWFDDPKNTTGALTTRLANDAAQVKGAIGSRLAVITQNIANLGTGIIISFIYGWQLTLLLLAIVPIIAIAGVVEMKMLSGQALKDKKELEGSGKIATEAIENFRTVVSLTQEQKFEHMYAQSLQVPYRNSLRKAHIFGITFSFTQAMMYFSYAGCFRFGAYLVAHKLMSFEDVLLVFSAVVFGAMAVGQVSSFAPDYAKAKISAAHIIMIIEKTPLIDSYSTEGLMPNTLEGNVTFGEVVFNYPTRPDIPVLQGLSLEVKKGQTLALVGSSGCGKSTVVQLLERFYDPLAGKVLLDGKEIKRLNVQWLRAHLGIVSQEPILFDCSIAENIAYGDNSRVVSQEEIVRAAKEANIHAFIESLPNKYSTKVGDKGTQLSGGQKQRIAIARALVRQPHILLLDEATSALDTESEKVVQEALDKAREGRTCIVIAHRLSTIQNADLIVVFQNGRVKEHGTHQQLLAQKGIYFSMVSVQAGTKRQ

[15] = Toxicology studies: CNS and respiratory signs; assay type: in vivo
Description: The non-clinical safety profile of I-57 was established in vitro, and in vivo in rats and cynomolgus monkeys in studies up to 4-weeks duration. Based on the outcome of these studies, QTc interval prolongation was identified as the principal safety signal for I-57. There were other toxicities such as diarrhea and vomiting in monkeys, and mortality, clinical signs and target organ toxicities in rats; however, these occurred at exposures far above those expected to result in clinical activity.

Sequence of CYP2C9 (P11712 whole entry): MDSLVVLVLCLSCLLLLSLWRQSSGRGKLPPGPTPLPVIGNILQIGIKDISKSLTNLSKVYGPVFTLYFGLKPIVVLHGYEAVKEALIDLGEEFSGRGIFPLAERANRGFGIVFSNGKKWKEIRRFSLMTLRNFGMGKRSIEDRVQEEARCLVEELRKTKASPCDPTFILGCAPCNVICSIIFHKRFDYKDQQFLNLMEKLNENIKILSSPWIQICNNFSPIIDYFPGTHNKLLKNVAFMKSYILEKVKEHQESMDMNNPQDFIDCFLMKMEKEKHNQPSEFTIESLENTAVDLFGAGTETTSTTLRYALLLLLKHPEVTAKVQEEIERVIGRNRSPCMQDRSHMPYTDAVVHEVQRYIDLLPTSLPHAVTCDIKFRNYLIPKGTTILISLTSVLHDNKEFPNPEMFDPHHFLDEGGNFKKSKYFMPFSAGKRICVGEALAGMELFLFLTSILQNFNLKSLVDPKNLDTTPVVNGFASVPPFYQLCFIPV

O=C1CCC(N2Cc3cc(C4CCN(Cc5ccccc5)CC4)ccc3C2=O)C(=O)N1 (stereo not drawn) [Compound I-57, 3-(5-(1-benzylpiperidin-4-yl)-1-oxoisoindolin-2-yl)piperidine-2,6-dione]
inhibition of CYP2C9 [1]: very little and no inhibition
proportion of proliferative peripheral T cells (Ki67 staining) [2]: increased
binding to plasma protein [3]: 52%
duration for which maximum decrease of IKZF2 positive cells was maintained ([4]; single oral dose): 12 to 24 h
recovery of IKZF2 positive cells ([4]; single oral dose 1 mg/kg): total recovery was not achieved by day 7 post-dose
time at which decreased IKZF2 positive cells were detectable ([4]; single oral dose, 1 mg/kg and 0.1 mg/kg groups, flow cytometry): 4 h
time to maximum decrease of IKZF2 positive cells ([4]; single oral dose, post-dose): 12 to 24 h
binding to plasma protein [5]: 52%
degradation of IKZF2 and selectivity over IKZF1, IKZF4 and GSPT1 [6]: potent and specific degrader of IKZF2
proportion of proliferative peripheral T cells (Ki67 staining) ([7]; 3 mg/kg, recall response phase, compared to immunization alone): increased
Anti-IgG titers elicited by the immunization (serum anti-KLH IG) ([7]; KLH/Squalene immunization, daily I-57): not further enhanced
inhibition of CYP2C8 [8]: very little and no inhibition
dose proportionality of AUC ([9]; between 3 mg/kg and 100 mg/kg): roughly dose proportional
bioavailability ([9]; blood, po): 53%
Kp ([9]; brain, read-out: brain/plasma ratio): 0.07
time-dependent inhibition of CYP3A [10]: no apparent time-dependent inhibition
time-dependent inhibition of CYP2C8 [11]: no apparent time-dependent inhibition
degradation of IKZF2 [12]: degradation was observed
time-dependent inhibition of CYP2B6 [13]: no apparent time-dependent inhibition
P-gp substrate status [14]: P-gp substrate
CNS or respiratory signs [15]: no CNS or respiratory signs
